Data from paper PMC8610152, “Residue substitution enhances the immunogenicity of neoepitopes from gastric cancers” (Cancer Biology & Medicine, 2021).
“Also recorded” adds a separate entry of the source.

Assays:
naïve CD8+ T cells = assay: CFSE proliferation of CD8+ T cells stimulated by neoepitope-loaded DCs; type: cell-based, human; settings: DCs loaded with 10 µg/mL neoepitope, T cells:DCs 10:1, two rounds of 7 days, flow cytometry, mean ± SD
Procedure: (§1) To elicit neoepitope-specific CD8^+ T cell responses, peripheral blood mononuclear cells (PBMCs) were isolated from healthy HLA-A0201 volunteer donors using lymphocyte separation medium (MP Biomedicals, Burlingame, CA, USA). This protocol was approved by the Ethics Committee of Fujian Cancer Hospital (Approval No. SQ2017-032-01). PBMCs were seeded into a 6-well plate and incubated for 2 h. Adherent cells were then induced to differentiate into dendritic cells (DCs) with 581 medium (Corning, NY, USA) in the presence of 100 ng/mL recombinant human GM-CSF (Mitenyi Biotec, Bergisch Gladbach, Germany) and 50 ng/mL recombinant human IL-4 (Mitenyi Biotec). DCs were sensitized with 10 µg/mL neoepitope, with a preparation without peptide serving as the control. After 24 h, 10 ng/mL IL-6 (Miltenyi Biotec), 10 ng/mL IL-1β (Miltenyi Biotec), 1 µg/mL CD40L (Miltenyi Biotec), and 10 ng/mL TNF-α (Mitenyi Biotec) were added for DC maturation. Next, naïve T cells were co-cultured for 7 days with DCs at a responder: stimulator ratio of 10:1. Medium was then replaced by half-fresh medium containing IL-2 (200 IU/mL, Jiangsu Kingsley Pharmaceutical, Nanjing, China) every 3 days. After another stimulation with neoepitope-loaded DCs for 7 days, CD8 MicroBeads (Mitenyi Biotec) were used to isolate positive CD8^+ T cells for subsequent experiments.
The naïve CD8^+ T cells were adjusted to 1 × 10^7 cells/mL and subjected to carboxyfluorescein succinimidyl ester (CFSE; Invitrogen) staining. The CFSE concentration was 1 µg/mL. Naïve CD8^+ T cells were incubated at 37 °C in the dark for 5 min. CFSE-labeled naïve CD8^+ T cells were incubated in 5 times the volume of 581 medium containing 5% FBS (PAN-Seratech, Aidenbach, Germany) in the dark for 2.5 min, centrifuged at 1,500 rpm for 5 min, and resuspended in 581 medium. The naïve CD8^+ T cells were co-cultured with DCs with different neoepitopes at a ratio of 10:1 (naive CD8^+ T cells: 1 × 10^6 cells: DCs: 1 × 10^5 cells). After co-culturing with DCs with different neoepitopes for 2 consecutive times, 7 days for each time, T cells were stained with 20 µL PerCP-CD3 fluorescent antibody (BD Biosciences) and 5 µL APC-CD8 fluorescent antibody (BD Biosciences) in the dark for 30 min. The CFSE abundance on the surface of T cells was detected by flow cytometry to determine the proliferation of T cells.

neoepitope-specific CTLs [1] = assay: Intracellular perforin staining of CTLs; type: cell-based, human; settings: T cells:T2 cells loaded with wild-type neoepitopes 10:1, 24 h, brefeldin A 1 h, CD8+ gate, flow cytometry, mean ± SD of 3 independent experiments
Procedure: as §1
T cells and T2 cells loaded with wild-type neoepitopes were co-cultured at a ratio of 10:1 for 24 h, incubated in the presence of 5 µg/mL brefeldin A for 1 h, and washed with PBS once. The cells were stained with 20 µL PerCP-CD3 fluorescent antibody and 5 µL APC-CD8 fluorescent antibody in the dark for 30 min, followed by fixation with 100 µL Reagent A from a Intrasure Kit (BD Biosciences) in the dark for 5 min. Subsequently, the cells were permeabilized and stained with 50 µL Reagent B from the Intrasure Kit and 20 µL FITC-perforin fluorescent antibody (BD Biosciences) in the dark for 30 min. After washing with PBS once, the expression of perforin in T cells was detected by flow cytometry.

[2] = target: T1, pMHC complex (neoepitope/HLA-A0201) on T2 cells (Homo sapiens, UniProt P04439, D140Y/D185E/D98H/E176V/E277Q/G131W/G231S/I119V/I121R/I166T/I218V/L300P/L318F/N151K/N90K/P208A/P217A/Q86G/Q94H/R138H/R169H/T345S); assay: T2 stability assay of pMHC complex; type: binding; settings: for DC50 (time required for 50% dissociation of the pMHC complex stabilized at t = 0 h): T2 cells, 50 µg epitope + 3 µg β2M 18 h, 5 µg/mL brefeldin A 1 h, then 0, 6, 12, 18, 24 h at 37 °C, PE-HLA-A2 flow cytometry; for Stability of pMHC complexes (dissociation rate over 0-24 h, Figure 2B): in words, mean ± SD of 3 independent experiments
T1 construct: endogenous in cells; host or cells: T2 cells
Procedure: T2 cells were cultured with 50 µg of each epitope peptide and 3 µg β2M for 18 h in 1 mL FBS-free RPMI1640 medium at 37 °C in a 24-well plate using 1 × 10^6 cells/well. T2 cells were then incubated with 5 µg/mL brefeldin A (Abcam, Cambridge, UK) at 37 °C for another 1 h after washing twice with PBS. […] The MFI of the HLA-A0201 molecules in T2 cells was detected by flow cytometry. The results are expressed as DC50, which is the time required for 50% dissociation of the pMHC complex stabilized at t = 0 h.

[3] = target: T2, HLA-A0201 molecules on the T2 cell surface (Homo sapiens, UniProt P04439, D140Y/D185E/D98H/E176V/E277Q/G131W/G231S/I119V/I121R/I166T/I218V/L300P/L318F/N151K/N90K/P208A/P217A/Q86G/Q94H/R138H/R169H/T345S); assay: T2 binding (affinity) assay; settings: T2 cells 1 × 10^6 cells/well, 50 µg epitope + 3 µg β2M in 1 mL FBS-free RPMI1640, 37 °C, 18 h, PE-HLA-A2 antibody, flow cytometry, FI = (MFI epitope – MFI control)/MFI control, mean ± SD
T2 construct: The MFI (mean fluorescence intensity) of HLA-A0201 molecules on the T2 cell surface was detected by flow cytometry; endogenous in cells; host or cells: T2 cells
Procedure: The T2 cells were placed in a 24-well plate at a density of 1 × 10^6 cells/well; 50 µg epitope and 3 µg β2M (Merck, Kenilworth, NJ, USA) were then added and incubated in 1 mL fetal bovine free (FBS)-free RPMI1640 medium (Invitrogen, Carlsbad, CA, USA) at 37 °C for 18 h. T2 cells were washed twice with phosphate-buffered saline (PBS), treated with 20 µL PE-HLA-A2 fluorescent antibody (BD Biosciences, San Jose, CA, USA), incubated in the dark for 30 min, and then washed with PBS once. The MFI (mean fluorescence intensity) of HLA-A0201 molecules on the T2 cell surface was detected by flow cytometry (BD Biosciences). The formula used for calculating the fluorescence index was as follows: FI = (MFI of the epitope group – MFI of the control group)/MFI of the control group.

neoepitope-specific CTLs [4] = assay: IFN-γ ELISA, CTLs co-cultured with target cells; type: cell-based, human; settings: ELISA of supernatant; compared with CTLs stimulated by wild-type neoepitopes, P < 0.05
Procedure: as §1
(§2) The level of IFN-γ or TNF-α in the culture supernatants was detected using commercially available ELISA kits (Thermo Fisher Scientific, Waltham, MA, USA). Briefly, 96-well plates were coated with 100 µL/well capture antibody in coating buffer overnight. Plates were washed with wash buffer 3 times, 200 µL/well ELISA Diluent (1×) was added, and plates were incubated for 1 h. After washing with wash buffer twice, 100 µL/well of supernatants were added, incubated for 2 h, and washed with wash buffer 3 times, followed by addition of 100 µL/well antibodies against human IFN-γ/TNF-α. […] After incubation for 15 min, 100 µL/well stop solution was added to each well, and the optical density was measured using a microplate reader at 450 nm.

[5] = system: T2 cells loaded with wild-type neoepitopes; assay: LDH release cytotoxicity assay of neoepitope-specific CTLs; type: cell-based, human; settings: effector/target 20:1, 10:1, 5:1, 4 h, 37 °C, compared with wild-type neoepitope-specific CTLs
Procedure: as §1
The amount of lactate dehydrogenase (LDH) released from target cells incubated with neoepitope-specific T cells was measured using the CytoTox 96® Non-Radioactive Cytotoxicity Assay Kit (Promega, Madison, WI, USA). T2 cells loaded with neoepitopes were used as target cells at 1 × 10^4 cells/well in 96-well plates. […] After adding stop solution at 50 µL/well, the plates were analyzed using a microplate reader at a wavelength of 490 nm. The killing percentage of antigen-specific T cells to T2 cells loaded with neoepitopes was calculated according to the following formula: killing percentage = (experimental release – target spontaneous release – effector spontaneous release)/(target maximum release – target spontaneous release) × 100%.

neoepitope-specific CTLs [6] = assay: TNF-α ELISA, CTLs co-cultured with target cells; type: cell-based, human; settings: ELISA of supernatant; compared with CTLs stimulated by wild-type neoepitopes, P < 0.05
Procedure: as §1, §2

T cells = assay: IFN-γ ELISA, T cells co-cultured with neoepitope-loaded DCs; type: cell-based, human; settings: ELISA of co-culture supernatant; compared with wild-type neoepitope, P < 0.05
Procedure: as §1, §2

Sequence	Proliferation of specific CD8+ T cells (naïve CD8+ T cells)	Perforin expression in CTLs (neoepitope-specific CTLs [1])	DC50 (time required for 50% dissociation of the pMHC complex stabilized at t = 0 h) [2]	FI (fluorescence index) [3]	IFN-γ released by CTLs co-cultured with target cells (neoepitope-specific CTLs [4])	Cytotoxicity of neoepitope-specific CTLs on T2 cells loaded with wild-type neoepitopes [5]	TNF-α released by CTLs co-cultured with target cells (neoepitope-specific CTLs [6])	Stability of pMHC complexes (dissociation rate over 0-24 h, Figure 2B) [2]	IFN-γ secretion in T cells stimulated by DCs with neoepitopes (T cells)
FIGITATVV [mutABCA2]	12.53% ± 1.79%	29.87% ± 2.12%	<18 h	3.32 ± 0.36	–	–	–	–	–
FLGITATVV [mutABCA2L2]	16.47% ± 1.59%	36.57% ± 2.01%	>18 h	4.49 ± 0.42	released more IFN-γ and TNF-α	killed a greater number of T2 cells loaded with wild-type neoepitopes	released more IFN-γ and TNF-α	higher than those of wild-type neoepitopes	more IFN-γ than the wild-type neoepitopes
PLLPVTCGV [mutSP140]	18.87% ± 0.81%	44.70% ± 1.68%	>24 h	3.79 ± 0.50	–	–	–	–	–
SLIISVDGV [mutSTOML2]	17.70% ± 1.14%	41.30% ± 1.76%	>18 h	4.71 ± 0.41	released more IFN-γ and TNF-α	killed a greater number of T2 cells loaded with wild-type neoepitopes	released more IFN-γ and TNF-α	higher than those of wild-type neoepitopes	more IFN-γ than the wild-type neoepitopes
SVIISVDGV [mutSTOM]	14.03% ± 0.76%	35.53% ± 1.02%	<18 h	4.27 ± 0.52	–	–	–	–	–
YLLPVTCGV [mutSP140Y1]	23.43% ± 1.17%	56.20% ± 1.28%	–	–	released more IFN-γ and TNF-α	killed a greater number of T2 cells loaded with wild-type neoepitopes	released more IFN-γ and TNF-α	higher than those of wild-type neoepitopes; also recorded: more stable than mutSP140	more IFN-γ than the wild-type neoepitopes
